The text below walks through data of patent EP3698805A1, “FRACTION OFZANTHOXYLUM PIPERITUM” (Mecox Curemed Co., Ltd., priority 2017, dated 2019).

SMILES strings stand for the structures. Where “and” joins values, the source holds several entries; their conditions need not be identical. Equal values may be shown once. Read-outs that look alike come from different tables or passages of the source.

The test system of test [1] is acetic acid-induced pain model. The test is described as follows: acetic acid-induced pain model (writhing syndrome test). The format is in vivo, ICR mice. As to conditions: for pain inhibition effect: FIG. 3, compounds isolated from ZPE6A or ZPE6C fraction; for Pain inhibition percentage (%)(50 mg/kg, po): active ingredients. On the procedure: The acetic acid-induced writhing syndrome test is an animal model for determining analgesic effects. It is mainly used to test the effect of analgesics on the peripheral nervous system. The experimental animals used herein were 5-week-old ICR mice purchased from Central Laboratory Animals (Seoul) and acclimated in a breeding room maintained at a humidity of 50% and a temperature of 24 to 26°C for one week. Feed and water were supplied for free intake. […] The test substance was orally administered 60 minutes before the induction of pain to determine the degree of analgesic effect.
On the technique in general: Writhing tests count abdominal constrictions after an irritant is injected.

Test [2] concerns pain response induced by formalin. Put plainly: formalin test. Format: in vivo, rats. The settings on record: 100 mg/kg. As to the method: The formalin test is primarily used to measure the analgesic effects of drugs in chronic pain models, in which the pain stimulus and response are not temporary but persistent. The pain response induced by formalin includes phase 1 and phase 2, and these two phases can be distinguished pharmacologically. The test substance and acetaminophen or aspirin, as a positive control group, were orally administered 60 minutes before the induction of pain, 10% formalin was injected subcutaneously into the hind legs of rats, and the number of actions in response to pain was measured every 3 minutes. The action in response to pain was measured separately in phase 1 (0-12 minutes) and phase 2 (24-39 minutes).

A further test relates to mast cell RBL-2H3. Put plainly: inhibition of mast cell degranulation (β-hexosaminidase secretion). Format: cell-based. The settings on record: for inhibition at 25 µg/mL / inhibition at 100 µg/mL: Rattus norvegicus. As to the method: Inhibition of inflammation-promoting cytokines has been reported to inhibit autoimmune diseases such as atopy. Thus, in the present embodiment, the mast cell RBL-2H3 was treated with the Zanthoxylum piperitum leaf extract or active compounds (quercitrin, afzelin) to evaluate the secretion inhibition ability of β-hexosaminidase. That is, the effect of inhibiting mast cell degranulation by the Zanthoxylum piperitum leaf extract or the active compound (quercitrin, afzelin) was found.

Test [3] has as its system collagen-induced arthritis animal model. Put plainly: collagen-induced arthritis animal model (clinical score, micro-CT). The format is in vivo, DBA/1J mice. Also on record: scale not given here. On the procedure:
As one of the methods for evaluating the therapeutic effect of rheumatoid arthritis, the antirheumatic efficacy of each test substance was measured in a collagen-induced arthritis animal model. The experimental animals herein used were 5-week-old DBA/1J mice purchased from Central Laboratory Animals (Seoul) and acclimated in a breeding room maintained at a humidity of 50% and a temperature of 24 to 26°C for one week. Feed and water were supplied for free intake. In order to induce arthritis, type 2 collagen and CFA (complete Freund's adjuvant) were mixed to obtain an emulsion. 200 µL of the emulsion was injected subcutaneously […] into the lower part of the tail 2 to 3 cm away from the torso of DBA/1J mice, and the same amount of the emulsion was secondarily injected in […] into the lower part of the tail in the same manner as in the primary injection 21 days after exposure to a primary antigen. A positive control group was orally administered with dexamethasone at a dose of 1 mg/kg from the 22nd day after primary antigen exposure, the group administered with the Zanthoxylum piperitum leaf extract was orally treated at 100 mg/kg for 3 weeks, rheumatoid arthritis lesions were visually observed and graded, and the arthritis alleviation efficacy was measured as a clinical score.

Setting [4] is: RBL-2H3, read-out: degranulation inhibitory activity compared to the ketotifen drug.
Where [5] appears, read: individual animals No. 1-7, extract 100 mg/kg oral 3 weeks, dexamethasone 1 mg/kg oral, listed as Positive control group.

With `O=C(O)c1ccccc1C(=O)O` [1,2-benzenedicarboxylic acid], the pain inhibition effect result in test [1] was “excellent pain inhibition effects”.

For the molecule `CC(C)(C)c1ccc(O)c(C(C)(C)C)c1` [2,4-di-tert-butylphenol], the pain inhibition effect result in test [1] is listed as “excellent pain inhibition effects”.

`CC(=O)c1ccc(O)cc1` [4'-hydroxyacetophenone]: the pain inhibition effect entry in test [1] is “excellent pain inhibition effects”.

In the case of `CC(=O)Nc1ccc(O)cc1` [Acetaminophen], in test [2] (phase 1 (0-12 minutes)), the “Inhibition (%) Phase 1” value is given as 35.2%. For the same molecule, the “Inhibition (%) Phase 2” value in test [2] (phase 2 (24-39 minutes)) is listed as 41.7%.

For `C[C@@H]1O[C@@H](Oc2c(-c3ccc(O)cc3)oc3cc(O)cc(O)c3c2=O)[C@H](O)[C@H](O)[C@H]1O` [Afzelin, camphorol-3-O-alpha-L-rhamnoside], the “Pain inhibition percentage (%)(50 mg/kg, po)” value in test [1] turned out to be 93.6%. Further, the inhibition at 25 µg/mL in the test with mast cell RBL-2H3 (RBL-2H3, treatment dose of 25 µg/mL, read-out: degranulation inhibitory activity compared to the ketotifen drug) is ~195%. Also, the inhibition at 100 µg/mL in the test on mast cell RBL-2H3 (RBL-2H3, treatment dose of 100 µg/mL, read-out: degranulation inhibitory activity compared to the ketotifen drug) is ~93%. In addition, the “Effect of inhibiting degranulation (% inhibition)” value (“Effect … (% inhibition)” below) with mast cell RBL-2H3 (treatment amount 12.5 µg/mL) is on record as 25.1 ± 1.68 % inhibition; with mast cell RBL-2H3 (treatment amount 25 µg/mL), 39.4 ± 1.06 % inhibition; in the test on mast cell RBL-2H3 (treatment amount 50 µg/mL), 41.3 ± 1.67 % inhibition; in the test with mast cell RBL-2H3 (treatment amount 100 µg/mL) it was 40.9 ± 0.98 % inhibition.

For `CN1CCC(=C2c3ccccc3CC(=O)c3sccc32)CC1` [Ketotifen], the “Effect … (% inhibition)” value in the test on mast cell RBL-2H3 (treatment amount 12.5 µg/mL) turned out to be 13.8 ± 0.88 % inhibition; in the test with mast cell RBL-2H3 (treatment amount 25 µg/mL) it was 20.2 ± 0.84 % inhibition; in the test with mast cell RBL-2H3 (treatment amount 50 µg/mL), 32.8 ± 1.04 % inhibition; in the test on mast cell RBL-2H3 (treatment amount 100 µg/mL), 43.9 ± 1.45 % inhibition.

With `C[C@@H]1O[C@@H](Oc2c(-c3ccc(O)c(O)c3)oc3cc(O)cc(O)c3c2=O)[C@H](O)[C@H](O)[C@H]1O` [Quercitrin, quercetin-3-O-alpha-L-rhamnoside], in test [1], the “Pain inhibition percentage (%)(50 mg/kg, po)” value is 69.2%. Besides, the inhibition at 25 µg/mL in the test on mast cell RBL-2H3 (setting [4]) was ~70%. The inhibition at 100 µg/mL in the test on mast cell RBL-2H3 (setting [4]) was ~50%. The “Effect … (% inhibition)” value in the test on mast cell RBL-2H3 (treatment amount 12.5 µg/mL) amounted to 6.3 ± 0.13 % inhibition; in the test on mast cell RBL-2H3 (treatment amount 25 µg/mL), 14.3 ± 0.11 % inhibition; in the test on mast cell RBL-2H3 (treatment amount 50 µg/mL) it was 19.8 ± 0.28 % inhibition; with mast cell RBL-2H3 (treatment amount 100 µg/mL) it was 22.2 ± 0.32 % inhibition.

Consider `C[C@@H]1C[C@H]2[C@@H]3CCC4=CC(=O)C=C[C@]4(C)[C@@]3(F)[C@@H](O)C[C@]2(C)[C@@]1(O)C(=O)CO` [dexamethasone], for which the average score in test [3] (group mean of total clinical score, control group 11.8) amounted to 6.3. In test [3] (individual animals No. 1-7, extract 100 mg/kg oral 3 weeks, dexamethasone 1 mg/kg oral), the “visual clinical score Right back leg” value stood at 1. In test [3] (setting [5]), the “visual clinical score Left back leg” value is 1 (5×) and 2 (2×); the “visual clinical score Left front leg” value was 3 (2×) and 2 (3×) and 1 (2×); the “visual clinical score Right front leg” value was 3 (2×) and 2 (3×) and 1 (2×); the “visual clinical score Total” value was 8 and 7 (2×) and 6 (2×) and 5 (2×).
